Reference: ChEMBL document CHEMBL5543091, “Exploring structural determinants of neuroprotection bias on novel glypromate conjugates with bioactive amines” (2024)
Where “and” joins values, the source holds several entries; their conditions need not be identical. Equal entries are not always repeated. Calls of active or inactive are those of the source. No cut-off for these calls is given here.

Experiments:
[1] = tested on: SH-SY5Y; assay: Neuroprotective activity against 6-OHDA-induced cytotoxicity in differentiated human SH-SY5Y cells at 100 uM incubated for 48 hrs followed by exposure to 6-OHDA in presence of glypromate by MTT reduction assay; assay type: functional, cell-based
[2] = tested on: SH-SY5Y; assay: Neuroprotective activity against 6-OHDA-induced cytotoxicity in differentiated human SH-SY5Y cells at 100 uM incubated for 48 hrs followed by exposure to 6-OHDA by MTT reduction assay; assay type: functional, cell-based
[3] = tested on: SH-SY5Y; assay: Cytotoxicity against differentiated human SH-SY5Y cells assessed as reduction in cell viability at 100 uM measured after 48 hrs by MTT reduction assay relative to control; assay type: functional
[4] = tested on: SH-SY5Y; assay: Cytotoxicity against non-differentiated human SH-SY5Y cells assessed as reduction in cell viability measured after 24 hrs by MTT reduction assay relative to control; assay type: functional; design: concentration or dose not given beside the values
[5] = tested on: SH-SY5Y; assay: Neuroprotective activity against Amyloid beta(25 to 35)-induced cell injury in non-differentiated human SH-SY5Y cells assessed as reduction in formation of protein aggregates at 100 uM incubated for 24 hrs by ThT fluorescence assay; assay type: functional; design: scale not given: the % may be the effect or the level left
[6] = tested on: SH-SY5Y; assay: Neuroprotective activity against 6-OHDA-induced cytotoxicity in differentiated human SH-SY5Y cells at 100 uM incubated for 48 hrs followed by exposure to 6-OHDA by MTT reduction assay (reference value: 61.50+/-7.43%); assay type: functional; design: scale not given: the % may be the effect or the level left
[7] = tested on: SH-SY5Y; assay: Neuroprotective activity against Amyloid beta(25 to 35)-induced cell injury in non-differentiated human SH-SY5Y cells assessed as reduction in formation of protein aggregates at 100 uM incubated for 24 hrs by fluorescence microscopy based analysis; assay type: functional
[8] = tested on: SH-SY5Y; assay: Neuroprotective activity in Amyloid beta(25 to 35)-induced non-differentiated human SH-SY5Y cells assessed as fold increase in protein aggregation reduction 100 uM incubated for 24 hrs by ThT fluorescence assay; assay type: functional
[9] = tested on: SH-SY5Y; assay: Neuroprotective activity against 6-OHDA-induced cytotoxicity in differentiated human SH-SY5Y cells at 100 uM incubated for 48 hrs followed by exposure to 6-OHDA in presence of memantine by MTT reduction assay; assay type: functional, cell-based
[10] = tested on: SH-SY5Y; assay: Neuroprotective activity against Amyloid beta(25 to 35)-induced cell injury in non-differentiated human SH-SY5Y cells assessed as reduction in formation of protein aggregates at 100 uM incubated for 24 hrs in presence of glypromate by ThT fluorescence assay; assay type: functional; design: scale not given: the % may be the effect or the level left

Row | Structure (SMILES) | Activity [3] [%] | Activity [4] [%] | Activity [5] [%] | other results
1 | CC12CC3CC(C)(C1)CC(N)(C3)C2 | – | – | – | Activity [1]: inactive; Activity [2]: inactive
2 | COC(=O)[C@H](CCC(=O)NC12CC3CC(C)(CC(C)(C3)C1)C2)NC(=O)[C@@H]1CCCCN1C(=O)CN.O=C(O)C(F)(F)F | <25 | <85 | – | –
3 | COC(=O)[C@H](CCC(=O)NC12CC3CC(CC(C3)C1)C2)NC(=O)[C@@H]1CCCCN1C(=O)CN(C)C | <25 | <85 | – | –
4 | COC(=O)[C@H](CCC(=O)NC12CC3CC(C)(CC(C)(C3)C1)C2)NC(=O)[C@@H]1CCCN1C(=O)CN.O=C(O)C(F)(F)F | – | <85 | – | –
5 | COC(=O)CC[C@H](NC(=O)[C@@H]1CCCN1C(=O)CNC(=O)OC(C)(C)C)C(=O)NC12CC3CC(C)(CC(C)(C3)C1)C2 | – | <85 | – | –
6 | COC(=O)[C@H](CCC(=O)N[C@@H]1CCc2ccccc21)NC(=O)[C@@H]1CCCCN1C(=O)CNC(=O)OC(C)(C)C | – | 96.69 | 120.77 | –
7 | COC(=O)CC[C@H](NC(=O)[C@@H]1CCCN1C(=O)CNC(=O)OC(C)(C)C)C(=O)NC12CC3CC(CC(C3)C1)C2 | – | 89.28 | 80.35 | –
8 | COC(=O)CC[C@H](NC(=O)[C@@H]1CCCCN1C(=O)CN(C)C)C(=O)N[C@@H]1CCc2ccccc21 | 94.5 | – | – | Activity ([4]; 24 h): 95.12% and <85%
9 | COC(=O)[C@H](CCC(=O)NC12CC3CC(CC(C3)C1)C2)NC(=O)[C@@H]1CCCCN1C(=O)CNC(=O)OC(C)(C)C | 91.13 | 92.96 | 127.26 | –
10 | COC(=O)CC[C@H](NC(=O)[C@@H]1CCCN1C(=O)CN)C(=O)N[C@@H]1CCc2ccccc21.O=C(O)C(F)(F)F | 98.44 | 87.33 | 62.25 | Activity [6]: 65.5%; Activity [7]: Active; fold change (FC) [8]: 3.2
11 | NCC(=O)N1CCC[C@H]1C(=O)N[C@@H](CCC(=O)O)C(=O)O | – | – | 87.78 | Activity [9]: inactive
12 | COC(=O)CC[C@H](NC(=O)[C@@H]1CCCCN1C(=O)CN(C)C)C(=O)NC12CC3CC(CC(C3)C1)C2 | – | 93.57 | – | –
13 | COC(=O)[C@H](CCC(=O)NC12CC3CC(C)(CC(C)(C3)C1)C2)NC(=O)[C@@H]1CCCN1C(=O)CNC(=O)OC(C)(C)C | – | <85 | – | –
14 | COC(=O)[C@H](CCC(=O)NC12CC3CC(C)(CC(C)(C3)C1)C2)NC(=O)[C@@H]1CCCCN1C(=O)CN(C)C | <25 | <85 | – | –
15 | COC(=O)[C@H](CCC(=O)NC12CC3CC(CC(C3)C1)C2)NC(=O)[C@@H]1CCCN1C(=O)CN(C)C | – | 86.22 | – | –
16 | COC(=O)CC[C@H](NC(=O)[C@@H]1CCCN1C(=O)CN)C(=O)NC12CC3CC(C)(CC(C)(C3)C1)C2.O=C(O)C(F)(F)F | 97.3 | <85 | – | –
17 | COC(=O)[C@H](CCC(=O)N[C@@H]1CCc2ccccc21)NC(=O)[C@@H]1CCCCN1C(=O)CN(C)C | – | – | – | Activity ([4]; 24 h): 97.03% and <85%
18 | COC(=O)CC[C@H](NC(=O)[C@@H]1CCCN1C(=O)CN(C)C)C(=O)N[C@@H]1CCc2ccccc21 | 104.91 | 93.5 | 69.21 | –
19 | COC(=O)CC[C@H](NC(=O)[C@@H]1CCCN1C(=O)CNC(=O)OC(C)(C)C)C(=O)N[C@@H]1CCc2ccccc21 | – | <85 | – | –
20 | COC(=O)[C@H](CCC(=O)NC12CC3CC(CC(C3)C1)C2)NC(=O)[C@@H]1CCCCN1C(=O)CN.O=C(O)C(F)(F)F | – | 87.9 | – | –

Row | Structure (SMILES) | Activity [3] [%] | Activity [4] [%] | Activity [5] [%] | other results
21 | COC(=O)[C@H](CCC(=O)NC12CC3CC(C)(CC(C)(C3)C1)C2)NC(=O)[C@@H]1CCCCN1C(=O)CNC(=O)OC(C)(C)C | 91.53 | <85 | – | –
22 | COC(=O)CC[C@H](NC(=O)[C@@H]1CCCN1C(=O)CN)C(=O)NC12CC3CC(CC(C3)C1)C2.O=C(O)C(F)(F)F | 109.73 | 94.84 | – | Activity [6]: 67.28%
23 | COC(=O)CC[C@H](NC(=O)[C@@H]1CCCCN1C(=O)CNC(=O)OC(C)(C)C)C(=O)NC12CC3CC(C)(CC(C)(C3)C1)C2 | 94.5 | <85 | – | –
24 | COC(=O)[C@H](CCC(=O)N[C@@H]1CCc2ccccc21)NC(=O)[C@@H]1CCCCN1C(=O)CN.O=C(O)C(F)(F)F | – | 89.37 | – | –
25 | COC(=O)[C@H](CCC(=O)NC12CC3CC(CC(C3)C1)C2)NC(=O)[C@@H]1CCCN1C(=O)CNC(=O)OC(C)(C)C | – | <85 | – | –
26 | COC(=O)CC[C@H](NC(=O)[C@@H]1CCCCN1C(=O)CN)C(=O)NC12CC3CC(C)(CC(C)(C3)C1)C2.O=C(O)C(F)(F)F | <25 | <85 | – | –
27 | COC(=O)[C@H](CCC(=O)NC12CC3CC(C)(CC(C)(C3)C1)C2)NC(=O)[C@@H]1CCCN1C(=O)CN(C)C | 99.94 | <85 | – | Activity [6]: 65.16%
28 | COC(=O)[C@H](CCC(=O)N[C@@H]1CCc2ccccc21)NC(=O)[C@@H]1CCCN1C(=O)CN(C)C | 99.49 | 99.51 | 81.51 | –
29 | COC(=O)[C@H](CCC(=O)N[C@@H]1CCc2ccccc21)NC(=O)[C@@H]1CCCN1C(=O)CN.O=C(O)C(F)(F)F | 98.02 | 94.4 | 57.42 | Activity [7]: Active; fold change (FC) [8]: 3.6
30 | COC(=O)CC[C@H](NC(=O)[C@@H]1CCCCN1C(=O)CN)C(=O)NC12CC3CC(CC(C3)C1)C2.O=C(O)C(F)(F)F | 97.33 | 92.68 | 132.48 | –
31 | COC(=O)CC[C@H](NC(=O)[C@@H]1CCCN1C(=O)CN(C)C)C(=O)NC12CC3CC(C)(CC(C)(C3)C1)C2 | 103.96 | <85 | – | Activity [6]: 70.93%
32 | COC(=O)[C@H](CCC(=O)NC12CC3CC(CC(C3)C1)C2)NC(=O)[C@@H]1CCCN1C(=O)CN.O=C(O)C(F)(F)F | – | 89.04 | – | –
33 | COC(=O)CC[C@H](NC(=O)[C@@H]1CCCCN1C(=O)CNC(=O)OC(C)(C)C)C(=O)N[C@@H]1CCc2ccccc21 | 99.35 | 97.28 | 120.05 | –
34 | COC(=O)CC[C@H](NC(=O)[C@@H]1CCCCN1C(=O)CN)C(=O)N[C@@H]1CCc2ccccc21.O=C(O)C(F)(F)F | 98.85 | 94.96 | 129.25 | –
35 | COC(=O)[C@H](CCC(=O)N[C@@H]1CCc2ccccc21)NC(=O)[C@@H]1CCCN1C(=O)CNC(=O)OC(C)(C)C | – | <85 | – | –
36 | COC(=O)CC[C@H](NC(=O)[C@@H]1CCCN1C(=O)CN(C)C)C(=O)NC12CC3CC(CC(C3)C1)C2 | 107.67 | 91.14 | 79.52 | Activity [6]: 68.03%
37 | COC(=O)CC[C@H](NC(=O)[C@@H]1CCCCN1C(=O)CN(C)C)C(=O)NC12CC3CC(C)(CC(C)(C3)C1)C2 | <25 | <85 | – | –
38 | COC(=O)CC[C@H](NC(=O)[C@@H]1CCCCN1C(=O)CNC(=O)OC(C)(C)C)C(=O)NC12CC3CC(CC(C3)C1)C2 | 101.45 | 92.73 | 133.03 | –
39 | N[C@@H]1CCc2ccccc21 | – | – | 38 | Activity [10]: 79.68%
